From ChEMBL document CHEMBL1201862, “PubChem BioAssay data set” (2004)
Activity calls are given as the source filed them.

Key:
Paired box protein Pax-8 = Paired box protein Pax-8 (Homo sapiens, UniProt Q06710); experiment: inhibitors of PAX8-driven TPO luciferase reporter, dose response, RMG-I cells, cherry-pick (AID 687027); assay type: functional, cell-based;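 further: luciferase reporter driven by Pax8 target thyroperoxidase promoter measured by SteadyGlo luminescence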
[1] = cytotoxicity in OV-90 ovarian cancer cells, dose response, PAX8 inhibitor project, cell-based, plate reader, dry powder, SA8 (AID 743149); assay type: functional
[2] = cytotoxicity dependent on PAX8, dose response, cell-based, plate reader, dry powder (AID 743049); assay type: functional
[3] = NIH:OVCAR-3 ovarian cancer cell cytotoxicity, dose response, PAX8 inhibitor project, plate reader, dry powder samples (AID 743044); assay type: functional, cell-based
[4] = non-specific cell cytotoxicity, dose response, cytotoxicity control for PAX8 inhibitor project, plate reader, dry powder samples (AID 743021); assay type: functional, cell-based
[5] = IGROV1 ovarian cancer cell cytotoxicity, dose response, PAX8 inhibitor project, plate reader, dry powder samples (AID 743043); assay type: functional, cell-based; details: IGROV-1
[6] = A2780 ovarian cancer cell cytotoxicity, dose response, cytotoxicity control, plate reader, dry powder samples (AID 743046); assay type: functional, cell-based
[7] = A549 cell cytotoxicity, dose response, cytotoxicity control, plate reader, cherry-pick, antagonist series (AID 743412); assay type: functional, cell-based
[8] = LGR2 antagonists, dose response, cell-based, HEK293, CRE-luciferase reporter, cherry pick (AID 743342); assay type: functional
[9] = inhibitors of non-replicating M. tuberculosis, dose response, luciferase, dry powder (AID 651620); assay type: functional; details: Mycobacterium tuberculosis
[10] = inhibitors of non-replicating M. tuberculosis, dose response, luciferase, dry powder (AID 651619); assay type: functional; details: Mycobacterium tuberculosis
[11] = growth inhibition of replicating M. tuberculosis, dose response, counter-screen, dry powder, IC90 (AID 651617); assay type: functional; details: Mycobacterium tuberculosis
Protein Wnt-3a = Protein Wnt-3a (Mus musculus, UniProt P27467); experiment: SAR analysis of small molecule antagonists of Gli-SUFU in a Wnt3a luminescent reporter assay.; assay type: functional
Chain of Protein Wnt-3a (P27467 whole entry): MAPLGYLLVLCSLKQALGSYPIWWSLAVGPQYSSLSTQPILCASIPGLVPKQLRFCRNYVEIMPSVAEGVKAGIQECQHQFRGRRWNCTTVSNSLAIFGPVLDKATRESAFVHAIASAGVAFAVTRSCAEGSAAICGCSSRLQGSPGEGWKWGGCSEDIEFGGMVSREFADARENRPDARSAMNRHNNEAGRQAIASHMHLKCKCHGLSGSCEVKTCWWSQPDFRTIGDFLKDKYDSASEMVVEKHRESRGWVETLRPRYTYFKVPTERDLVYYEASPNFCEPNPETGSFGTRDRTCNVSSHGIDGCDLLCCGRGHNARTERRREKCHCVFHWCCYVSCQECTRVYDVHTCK

Mu-type opioid receptor = Mu-type opioid receptor (Homo sapiens, UniProt P35372); experiment: Late-stage results from the probe development effort to identify antagonists of OPRK1: luminescence-based cell-based dose response OPRM1 counterscreen, Set 2.; assay type: functional
Chain of Mu-type opioid receptor (P35372 whole entry): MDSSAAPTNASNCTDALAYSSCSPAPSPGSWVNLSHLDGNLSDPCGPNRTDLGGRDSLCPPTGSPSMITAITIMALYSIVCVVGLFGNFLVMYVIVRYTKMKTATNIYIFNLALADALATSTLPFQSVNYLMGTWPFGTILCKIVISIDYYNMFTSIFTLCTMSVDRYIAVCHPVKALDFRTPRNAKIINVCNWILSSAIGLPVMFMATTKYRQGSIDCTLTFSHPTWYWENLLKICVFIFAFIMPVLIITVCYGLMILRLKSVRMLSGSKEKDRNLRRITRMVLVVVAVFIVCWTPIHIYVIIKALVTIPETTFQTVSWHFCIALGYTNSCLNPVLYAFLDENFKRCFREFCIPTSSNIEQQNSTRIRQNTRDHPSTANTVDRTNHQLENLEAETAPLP

[12] = target: Sphingosine 1-phosphate receptor 1 (Homo sapiens, UniProt P21453); experiment: Late-stage counterscreen for antagonists of kappa opioid receptor 1 (OPRK1): fluorescence-based cell-based dose response assay to identify antagonists of Sphingosine 1-Phosphate Receptor 1 (S1P1).; assay type: functional
Chain of Sphingosine 1-phosphate receptor 1 (P21453 whole entry): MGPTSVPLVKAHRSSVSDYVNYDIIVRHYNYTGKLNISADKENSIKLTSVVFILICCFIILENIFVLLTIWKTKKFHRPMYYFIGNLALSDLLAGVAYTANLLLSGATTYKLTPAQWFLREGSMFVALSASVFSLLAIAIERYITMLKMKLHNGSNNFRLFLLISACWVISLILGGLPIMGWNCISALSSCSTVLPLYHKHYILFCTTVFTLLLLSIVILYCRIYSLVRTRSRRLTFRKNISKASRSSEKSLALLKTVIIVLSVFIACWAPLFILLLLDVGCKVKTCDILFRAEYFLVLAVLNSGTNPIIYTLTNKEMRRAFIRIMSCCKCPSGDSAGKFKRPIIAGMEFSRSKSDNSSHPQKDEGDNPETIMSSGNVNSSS

[13] = target: Kappa-type opioid receptor (Homo sapiens, UniProt P41145); experiment: Late-stage fluorescence-based cell-based dose response assay for antagonists of kappa opioid receptor 1 (OPRK1).; assay type: functional
Chain of Kappa-type opioid receptor (P41145 whole entry): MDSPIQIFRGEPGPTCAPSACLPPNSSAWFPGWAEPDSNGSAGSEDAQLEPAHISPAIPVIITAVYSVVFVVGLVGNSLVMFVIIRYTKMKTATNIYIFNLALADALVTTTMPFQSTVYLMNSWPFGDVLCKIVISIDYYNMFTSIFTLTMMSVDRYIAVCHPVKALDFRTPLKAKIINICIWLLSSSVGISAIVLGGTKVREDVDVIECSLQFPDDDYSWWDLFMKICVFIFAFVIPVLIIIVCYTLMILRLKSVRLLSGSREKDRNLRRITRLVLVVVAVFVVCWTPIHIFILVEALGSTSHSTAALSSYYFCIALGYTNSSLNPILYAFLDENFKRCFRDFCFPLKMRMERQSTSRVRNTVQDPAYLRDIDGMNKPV

[14] = target: Delta-type opioid receptor (Homo sapiens, UniProt P41143); experiment: Late-stage results from the probe development effort to identify antagonists of OPRK1: fluorescence-based cell-based dose response OPRD1 counterscreen, Set 2.; assay type: functional
Chain of Delta-type opioid receptor (P41143 whole entry): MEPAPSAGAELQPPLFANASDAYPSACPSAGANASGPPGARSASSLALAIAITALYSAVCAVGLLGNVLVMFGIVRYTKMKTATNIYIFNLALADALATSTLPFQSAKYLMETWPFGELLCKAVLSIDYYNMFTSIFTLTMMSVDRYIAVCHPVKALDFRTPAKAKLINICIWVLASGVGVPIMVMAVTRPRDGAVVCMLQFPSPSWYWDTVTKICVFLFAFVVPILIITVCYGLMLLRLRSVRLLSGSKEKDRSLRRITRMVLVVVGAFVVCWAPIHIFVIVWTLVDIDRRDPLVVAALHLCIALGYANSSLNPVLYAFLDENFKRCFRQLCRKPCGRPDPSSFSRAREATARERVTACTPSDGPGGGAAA

[15] = target: Potassium channel subfamily K member 3 (Homo sapiens, UniProt O14649); experiment: TASK1 (KCNK3) potassium channel inhibitors, SAR follow-up, CHO cells, FluxOR thallium flux (AID 652212); assay type: functional
Chain of Potassium channel subfamily K member 3 (O14649 whole entry): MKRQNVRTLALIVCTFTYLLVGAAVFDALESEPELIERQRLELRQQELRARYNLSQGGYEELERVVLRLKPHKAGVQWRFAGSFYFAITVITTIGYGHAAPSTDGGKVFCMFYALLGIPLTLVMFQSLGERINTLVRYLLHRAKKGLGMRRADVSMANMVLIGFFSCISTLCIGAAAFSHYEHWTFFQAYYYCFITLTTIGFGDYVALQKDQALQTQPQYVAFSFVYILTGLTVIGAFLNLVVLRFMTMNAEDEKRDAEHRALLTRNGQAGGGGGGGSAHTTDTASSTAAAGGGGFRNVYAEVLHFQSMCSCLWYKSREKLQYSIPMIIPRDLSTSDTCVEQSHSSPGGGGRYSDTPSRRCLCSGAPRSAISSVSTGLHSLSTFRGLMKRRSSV

[16] = target: Potassium channel subfamily K member 9 (Homo sapiens, UniProt Q9NPC2); experiment: TASK3 (KCNK9) channel inhibitors, thallium flux, SAR follow-up, selectivity assay for TASK1 inhibitor project, cell-based, FluxOR thallium flux, concentration-response (AID 652211); assay type: functional;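 further: potency is for inhibitors of the channel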
Chain of Potassium channel subfamily K member 9 (Q9NPC2 whole entry): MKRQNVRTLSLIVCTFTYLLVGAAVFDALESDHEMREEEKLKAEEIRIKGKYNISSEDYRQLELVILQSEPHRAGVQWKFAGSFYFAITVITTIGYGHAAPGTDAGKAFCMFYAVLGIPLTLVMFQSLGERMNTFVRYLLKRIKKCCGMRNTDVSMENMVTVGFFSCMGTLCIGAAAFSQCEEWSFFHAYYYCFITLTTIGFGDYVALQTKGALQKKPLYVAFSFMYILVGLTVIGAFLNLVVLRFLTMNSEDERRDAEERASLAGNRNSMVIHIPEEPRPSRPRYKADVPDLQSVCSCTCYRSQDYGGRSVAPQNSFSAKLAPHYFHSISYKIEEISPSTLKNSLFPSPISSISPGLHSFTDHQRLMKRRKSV

Albumin = Albumin (Bos taurus, UniProt P02769); experiment: Counterscreen for inhibitors of T-cell receptor (TCR)-CD3 interaction: Fluorescence-based biochemical high throughput dose response assay to identify inhibitors of T-cell receptor (TCR)-CD3 interaction using a TAMRA-labeled BSA probe.; assay type: functional
Chain of Albumin (P02769 whole entry): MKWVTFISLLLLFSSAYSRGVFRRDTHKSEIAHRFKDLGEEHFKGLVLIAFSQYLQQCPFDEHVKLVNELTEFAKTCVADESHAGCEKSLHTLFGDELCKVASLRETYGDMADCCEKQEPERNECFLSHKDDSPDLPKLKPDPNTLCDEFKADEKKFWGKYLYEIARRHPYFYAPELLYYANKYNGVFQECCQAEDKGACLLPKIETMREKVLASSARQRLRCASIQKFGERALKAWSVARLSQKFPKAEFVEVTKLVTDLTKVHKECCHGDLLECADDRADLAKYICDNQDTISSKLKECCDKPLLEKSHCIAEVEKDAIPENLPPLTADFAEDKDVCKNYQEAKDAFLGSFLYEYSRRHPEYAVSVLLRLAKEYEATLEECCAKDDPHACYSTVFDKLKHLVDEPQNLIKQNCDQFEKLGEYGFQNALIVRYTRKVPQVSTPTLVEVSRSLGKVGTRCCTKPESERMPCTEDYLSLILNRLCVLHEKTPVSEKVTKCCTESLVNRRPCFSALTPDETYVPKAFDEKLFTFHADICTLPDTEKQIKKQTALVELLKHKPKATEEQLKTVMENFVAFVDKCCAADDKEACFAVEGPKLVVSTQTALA

Chain of Paired box protein Pax-8 (Q06710 whole entry): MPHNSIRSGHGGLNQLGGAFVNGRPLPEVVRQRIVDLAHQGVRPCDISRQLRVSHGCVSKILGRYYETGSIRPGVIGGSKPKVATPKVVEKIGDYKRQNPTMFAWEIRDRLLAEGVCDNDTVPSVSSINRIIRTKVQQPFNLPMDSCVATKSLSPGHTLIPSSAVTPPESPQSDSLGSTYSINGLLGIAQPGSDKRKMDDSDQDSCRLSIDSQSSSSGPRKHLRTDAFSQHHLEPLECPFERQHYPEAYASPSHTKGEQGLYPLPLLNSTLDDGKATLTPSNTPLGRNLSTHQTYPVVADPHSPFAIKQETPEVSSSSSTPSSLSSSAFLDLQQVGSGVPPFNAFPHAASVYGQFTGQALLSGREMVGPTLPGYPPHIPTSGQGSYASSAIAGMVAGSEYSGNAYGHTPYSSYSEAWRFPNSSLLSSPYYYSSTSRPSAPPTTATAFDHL

With `C[C@H]1CN([C@@H](C)CO)C(=O)CCCn2nncc2CO[C@@H]1CN(C)C(=O)Nc1ccc(-c2cccs2)cc1` the AC50 (Paired box protein Pax-8) was 0.48 µM (active), the AC50 [1] was > 70 µM (inactive) and the AC50 [2] was 7.43 µM (active).

In the case of `COc1ccc(NC(=O)N2CC(=O)N3[C@H](C2)[C@H](c2ccc(/C=C/c4ccccc4)cc2)[C@@H]3CO)cc1`, the AC50 [3] is reported as 12.4 µM (active), the AC50 (Paired box protein Pax-8) is reported as 5.72 µM (active) and the AC50 [4] is reported as 23.2 µM (active). The AC50 [5] was 30.6 µM (active) and the AC50 [6] was 26 µM (active).

For `C[C@H](CO)N1C[C@H](C)[C@H](CN(C)C(=O)Nc2ccccc2)OCCCC[C@H](C)Oc2ccc(NC(=O)Nc3ccccc3)cc2C1=O`, the AC50 [7] was > 52 µM (inactive) and the AC50 [8] was 16.9 µM (active).

For `Fc1cccc(-c2nnc(SCc3ccccn3)o2)c1`, the IC90 [9] was 4 µM (active), the IC90 [10] was 4 µM (active) and the IC90 [11] was 125 µM (active).

With `Cc1nc(NC(=O)c2ccccc2)cc(N(C)C)n1` the IC50 (Protein Wnt-3a) was > 21.8 µM (inactive).

With `O=C(c1cnn(-c2ccc(Cl)cc2)c1C(F)(F)F)N1CCN(c2ncnc3ccsc23)CC1` the IC50 (Mu-type opioid receptor) was > 50 µM (inactive), the IC50 [12] was > 50 µM (inactive) and the IC50 [13] was 1.05 µM (active). For the same compound, the IC50 [14] was > 50 µM (inactive).

With `COc1ccccc1NC(=O)c1cccc(NC(=O)c2ccccc2)c1` the IC50 [15] was 64 nM (active) and the IC50 [16] was 1.41 µM (active).

With `O=c1c2c(-c3ccc(Cl)cc3)csc2ncn1/N=C/c1cccc([N+](=O)[O-])c1O` the IC50 (Albumin) was > 94.1 µM (inactive).
